# Assay results published in patent publication US10342792B2, “Slow-release conjugates of SN-38” (ProLynx LLC, priority 2013, dated 2019).
# Several values for one entry are separate records, joined by “and”; a condition that tells them apart may be missing. Equal values may be shown once. Read-outs that look alike come from different tables or passages of the source.
# Experiments:
# [1] = cited from earlier work
# [2] = fold more active than irinotecan; cited from earlier work
# [3] = ionization of the 10-OH; cited from earlier work
# in vivo = conditions: female, Sprague-Dawley, rat
# Experimental: The samples were centrifuged at approximately 1,500×g (force) for 10 minutes at 2 to 8° C. to remove red blood cells and obtain ˜150 uL plasma. The plasma was divided into 2 aliquots and transferred to cryogenic vials and stored in a freezer at −80° C. prior to analysis.
# For analysis, the samples were thawed on ice and mixed with 2 volumes of acetonitrile/0.5% acetic acid containing 8 ng/mL of camptothecin as internal standard. Precipitated protein was removed by centrifugation at 16,000×g for 10 min at 4° C. Sample supernatants (20 uL) were analyzed using a Phenomenex® 300 Å Jupiter 5 um 150×4.6 mm C18 HPLC column thermostatted at 40° C. using a gradient of 100 mM sodium phosphate, 3 mM heptane sulfonate, pH 4.0 (Buffer A) and 75% acetonitrile in water (Buffer B) at 1.0 mL/min. […] Sample elution was followed with a diode array detector and a fluorescence detector with excitation set at 370 nm and the emission set at 470 nm for the first 9 min followed by emission at 534 nm for the final 10 min. Concentrations were calculated by comparison of peak areas to standard curves of the conjugate (absorbance 380 nm), and SN-38 (fluorescence Ex: 370 nm; Em: 534 nm). […]
# Plasma concentration versus time data for the conjugate were analyzed using a two-phase model where C(t)=A*exp(−αt)+B*exp(−βt) where A+B=dose/Vd. […]
# [4] = cited from earlier work; remark: listed apart in the source
# [5] = Pharmacokinetic model prediction for human using allometric scaling; conditions: estimated by allometric scaling
compound,measurement,setting,value
"CCc1c2c(nc3ccc(O)cc13)-c1cc3c(c(=O)n1C2)COC(=O)[C@]3(O)CC [SN-38, 7-ethyl-10-hydroxycamptothecin]",aqueous solubility,[1]; aqueous / water,18 µM and 17 µM
same,aqueous solubility,[1]; in water,7 µg/mL
same,activity relative to irinotecan,[2],~1000 ×
same,pKa,[3],~8.6
same,half-life,in vivo,15 min
same,"kc1, elimination of free SN-38 from the plasma",in vivo,2.77 h⁻¹
same,"volume of distribution Vd, reported value",[4],0.18 L/kg
same,Vss,[5],~0.15 L/kg
same,"kc1, elimination rate constant",[5],~0.7 h⁻¹
same,kc1 t1/2,[5],~60 min
